The source of these data is patent US20250120890A1, “Oral Care Compositions Comprising Hops Beta Acids And Tin” (The Procter & Gamble Company, priority 2023, published 2025).

The series in a line: Headspace measurement of DMDS and MeSH from dentifrice samples by SPME GC-SCD. It is filed as physicochemical. Particulars: 0.100 wt % in stannous dentifrice, each pair of samples with/without. As for the experimental part:
The oral care compositions of TABLE 2 were prepared by combining one or more humectants, water, sweetener(s), and metal salts, buffers, dyes, and/or stabilizing agents to create a liquid mixture. The liquid mixture was homogenized at 25° C. until homogeneous and completely dissolved. Next, sodium hydroxide (50% solution) was added to the liquid mixture, and the liquid mixture was homogenized at 25° C. until homogeneous and completely dissolved. A separate powder mixture was prepared by combining the abrasive silica, thickening silica, and opacifier, with any thickening agents, such as xanthan gum, Gantrez, and/or sodium carboxymethylcellulose. The powder mixture was then combined with the liquid mixture and homogenized completely. Next, the surfactant, such as sodium lauryl sulfate, flavor, optional Michael acceptor (“MA”), and optional hops extract were added to the mixture. The contents were homogenized at 25° C. until homogeneous, and entrained air was removed by vacuum. […]
Each salt described in Table 3 was weighed with a Mettler Toledo XSE 205 DualRange balance (Mettler Toledo USA, Columbus, OH, USA) and quantitatively transferred to a 600-mL beaker. […]

Turning to `C/C=C/C(=O)C1C(C)C=CCC1(C)C` (stereo not shown) [delta-damascone], the “Effect on headspace levels of MeSH and DMDS” value was “reduced the headspace levels of MeSH and DMDS substantially”.
